From US10738053B2, “Bicyclic compounds as dual ATX/CA inhibitors” (Hoffmann-La Roche Inc., priority 2015, dated 2020)

Experiments:
[1] = biological target: Human carbonic anhydrase II (hCA-II) (Homo sapiens (Human), UniProt P00918); assay: Human carbonic anhydrase-II inhibition assay (absorbance, 4-NPA substrate); format: biochemical; conditions: hCA II 8 nM, 4-NPA 2.5 mM, absorbance 340 nm; read-out: CA-II IC50
Protocol: Human Carbonic Anhydrase-II Inhibition Assay
Then 30 μL of 16 nM hCA II solution was added (8 nM final concentration), mixed five times. 30 μL of 4-NPA substrate solution was added (2.5 mM final concentration), mixed five times.

human ATX = human ATX (Homo sapiens (Human), UniProt Q13822); assay: Human ATX enzyme inhibition assay (fluorescence quenching, MR121 substrate); format: biochemical; conditions: human His-tagged ATX 30 nM, MR121 substrate 1 μM
Protocol: Production of Human Full Length ATX, with and without His Tag
Autotaxin (ATX-ENPP2) cloning: cDNA was prepared from commercial human hematopoietic cells total RNA and used as template in overlapping PCR to generate a full length human ENPP2 ORF with or without a 3′-6× His tag. These full length inserts were cloned into the pcDNA3.1V5-His TOPO (Invitrogen) vector. The DNA sequences of several single clones were verified. The DNA from a correct full length clone was used to transfect Hek293 cells for verification of protein expression. The sequence of the encoded ENPP2 conforms to Swissprot entry Q13822, with or without the additional C-terminal 6× His tag.
ATX Fermentation: Recombinant protein was produced by large-scale transient transfection in 20 L controlled stirred tank bioreactors (Sartorius). During cell growth and transfection, temperature, stirrer speed, pH and dissolved oxygen concentration were maintained at 37° C., 120 rpm, 7.1 and 30% DO, respectively. FreeStyle 293-F cells (Invitrogen) were cultivated in suspension in FreeStyle 293 medium (Invitrogen) and transfected at ca. 1-1.5×10E6 cells/mL with above plasmid DNAs using X-tremeGENE Ro-1539 (commercial product, Roche Diagnostics) as complexing agent. Cells were fed a concentrated nutrient solution (J Immunol Methods 194 (1996), 19, 1-199 (page 193)) and induced by sodium butyrate (2 mM) at 72 h post-transfection and harvested at 96 h post-transfection. Expression was analyzed by Western Blot, enzymatic assay and/or analytical IMAC chromatography. After cooling the cell suspension to 4° C. in a flow-through heat exchanger, cell separation and sterile filtration of supernatant was performed by filtration through Zeta Plus 60M02 E16 (Cuno) and Sartopore 2 XLG (Sartorius) filter units. The supernatant was stored at 4° C. prior to purification.
ATX Purification: 20 liter of culture supernatant were conditioned for ultrafiltration by adding Brij 35 to a final concentration of 0.02% and by adjusting the pH to 7.0 using 1 M HCl. Then the supernatant was first microfiltred through a 0.2 µm Ultran-Pilot Open Channel PES filter (Whatman) and afterwards concentrated to 1 liter through an Ultran-Pilot Screen Channel PES filter with 30 kDa MWCO (Whatman). Prior to IMAC chromatography, NiSO4 was added to a final concentration of 1 mM. […] The column was washed stepwise with the same buffer containing 20 mM, 40 mM and 50 mM imidazole, respectively. The protein was subsequently eluted using a linear gradient to 0.5 M imidazole in 15 column volumes. ATX containing fractions were pooled and concentrated using an Amicon cell equipped with a 30 kDa PES filter membrane. […] Final yield of protein after purification was 5-10 mg ATX per liter of culture supernatant. The protein was stored at −80° C.
Human ATX Enzyme Inhibition Assay
Test compounds (10 mM stock in DMSO, 8 μL) were obtained in 384 well sample plates (Corning Costar #3655) and diluted with 8 μL DMSO. […] Then, 15 μL of 41.7 nM ATX solution was added (30 nM final concentration), mixed five times and then incubated for 15 minutes at 30° C. 10 μL of MR121 substrate solution was added (1 μM final concentration), mixed 30 times and then incubated for 15 minutes at 30° C.

Compound	IC50 [1] [nM]	IC50 (human ATX) [nM]
CO[C@@]12CN(C(=O)OCc3ccc(OC(F)(F)F)cc3)C[C@H]1CN(C(=O)c1ccc(S(N)(=O)=O)cc1)C2 (single isomer, unassigned) [Example 5.01, (+)-trans-5-(4-sulfamoyl-benzoyl)-3a-methoxy-hexahydro-pyrrolo[3,4-c]pyrrole-2-carboxylic acid 4-trifluoromethoxy-benzyl ester]	27	6
NS(=O)(=O)c1ccc(C(=O)N2C[C@@H]3CN(C(=O)OCc4ccc(OC(F)(F)F)cc4)C[C@@]3(F)C2)cc1 (single isomer, unassigned) [Example 5.02, (+)-trans-5-(4-sulfamoyl-benzoyl)-3a-fluoro-hexahydro-pyrrolo[3,4-c]pyrrole-2-carboxylic acid 4-trifluoromethoxy-benzyl ester]	15	4
CO[C@@]12CN(C(=O)OCc3ncc(C(F)(F)F)cc3NC(=O)C(C)(C)C)C[C@H]1CN(C(=O)c1ccc(S(N)(=O)=O)cc1)C2 (single isomer, unassigned) [Example 5.03, (+)-trans-5-(4-sulfamoyl-benzoyl)-3a-methoxy-hexahydro-pyrrolo[3,4-c]pyrrole-2-carboxylic acid 3-(2,2-dimethyl-propionylamino)-5-trifluoromethyl-pyridin-2-ylmethyl ester]	20	13
C[C@@]12CN(C(=O)OCc3ccc(OC(F)(F)F)cc3)C[C@H]1CN(C(=O)c1ccc(S(N)(=O)=O)cc1)C2 [Example 4.00, (+)-(3aR,6aR)-3a-Methyl-5-(4-sulfamoyl-benzoyl)-hexahydro-pyrrolo[3,4-c]pyrrole-2-carboxylic acid 4-trifluoromethoxy-benzyl ester]	95	6
C[C@]12CN(C(=O)OCc3ccc(OC(F)(F)F)cc3)C[C@@H]1CN(C(=O)c1ccc(S(N)(=O)=O)cc1)C2 [Example 5.00, (−)-(3aS,6aS)-3a-methyl-5-(4-sulfamoylbenzoyl)-hexahydro-pyrrolo[3,4-c]pyrrole-2-carboxylic acid 4-trifluoromethoxy-benzyl ester]	38	7
